Source: patent US6825230B2, “Spiro and dispiro 1,2,4-trixolane antimalarials” (Medicines for Malaria Venture MMV, priority 2002, dated 2004)
≈ marks a conversion by molar mass, not a printed value. Like-named read-outs stand apart in the source and are kept apart here.

Key:
[1] = test system: Schistosoma mansoni 21-day-old schistosomules; test: Effect on 21-day-old schistosomules in infected mice; assay type: in vivo; conditions: for % reduction of schistosomule growth at day 21 after per os application of 200 mg/kg, FWR (%): female worm reduction rate
Protocol: Mice were infected with 100 Schistosoma mansoni cercariae on day 21 post-treatment. Each group was treated per os with trioxolanes at a single dose of 200 mg/kg. […] All groups were killed 4 weeks after treatment and the liver and intestine were removed and separated. The liver and intestine were compressed and alive male and female worms could be seen and counted. The effect of the compounds was evaluated by mean total and female worm burden.

[2] = test system: Schistosoma mansoni adult worms (49-day-old); test: Effect on adult schistosomes (49-day-old) in infected mice; assay type: in vivo; conditions: single 400 mg/kg per os
Protocol: Mice were infected with 100 Schistosoma mansoni cercariae on day 49 post-treatment. Each group was treated per os with OZ compounds at single doses of 200, 400, and 600 mg/kg. Untreated mice served as the control. All groups were killed 4 weeks after treatment and the liver and intestine were removed and separated. The liver and intestine were compressed and alive male and female worms could be seen and counted.

[3] = test system: chloroquine-sensitive NF54 strain of P. falciparum; test: In vitro antimalarial semiautomated microdilution assay ([3H]-hypoxanthine incorporation), NF54 strain; assay type: cell-based, Plasmodium falciparum; conditions: Plasmodium falciparum
Summary of the method: (§1)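 Logit regression analysis yields the fifty percent inhibitory concentration. Compounds are tested by semiautomated microdilution on intraerythrocytic parasites drawn from asynchronous stock cultures, measuring [3H]-hypoxanthine incorporation.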

[4] = test system: ANKA strain of P. berghei; test: Single dose STI in vivo screen in infected mice; parameters: species or system Plasmodium berghei; conditions: for Survival (days) 10 mg/kg po: single 10 mg/kg po in 3% ethanol and 7% Tween 80; for Survival (days) 10 mg/kg po / Survival (days) 10 mg/kg SSV po / Survival (days) 10 mg/kg sc: untreated 6-7 days; for Activity (%) 10 mg/kg po: single 10 mg/kg po in 3% ethanol and 7% Tween 80 on day 1 post-infection; for Activity (%) 10 mg/kg po / Activity (%) 10 mg/kg SSV po / Activity (%) 10 mg/kg sc: percent reduction in parasitemia on day 3; for Survival (days) 10 mg/kg SSV po: single 10 mg/kg po in SSV; for Activity (%) 10 mg/kg SSV po: single 10 mg/kg po in standard suspending vehicle (SSV) on day 1 post-infection; for Survival (days) 10 mg/kg sc: single 10 mg/kg sc in 3% ethanol and 7% Tween 80; for Activity (%) 10 mg/kg sc: single 10 mg/kg sc in 3% ethanol and 7% Tween 80 on day 1 post-infection
[5] = test system: chloroquine-resistant K1 strain of P. falciparum; test: In vitro antimalarial semiautomated microdilution assay ([3H]-hypoxanthine incorporation), K1 strain; assay type: cell-based, Plasmodium falciparum; conditions: Plasmodium falciparum
Summary of the method: as §1

[6] = single 200 mg/kg per os, 21-day-old schistosomules
[7] = single 200 mg/kg per os, 21-day-old schistosomules, total worm reduction rate
[8] = chloroquine-sensitive NF54 strain, 72 h incubation, read-out: IC50 (ng/ml) NF54
[9] = chloroquine-resistant K1 strain, 72 h incubation, read-out: IC50 (ng/ml) K1
[10] = NF54, 72 h, read-out: IC50 (ng/ml) NF54, chloroquine-sensitive NF54 strain, 72 h incubation
[11] = K1, 72 h, read-out: IC50 (ng/ml) K1, chloroquine-resistant K1 strain, 72 h incubation

O=C1CCC2(CC1)OOC1(CCCCCCCCCCC1)O2 [OZ21]
% reduction of schistosomule growth at day 21 after per os application of 200 mg/kg, FWR (%) [1, 6]: 0% | % reduction of schistosomule growth at day 21 after per os application of 200 mg/kg, TWR (%) [1, 7]: 0% | % reduction of adult worms growth at day 49 after per os application of 400 mg/kg, TWR (%) ([2]; 49-day-old adults, total worm reduction rate): 0/0% | Adult worms day 49, per os 400 mg/kg, DEAD WORM (%) ([2]; percentage of dead worm in the liver): 0/0%

O=[N+]([O-])c1ccc(N2CCC3(CC2)OOC2(O3)C3CC4CC(C3)CC2C4)cc1 (stereo not drawn) [OZ151, Adamantane-2-spiro-3′-8′-(4′-nitrophenyl)-1′,2′,4′-trioxa-8′-azaspiro[4.5]decane]
IC50 [3, 8]: 4 ng/mL (≈ 10.4 nM) | % reduction of schistosomule growth at day 21 after per os application of 200 mg/kg, TWR (%) ([1]; po, 200 mg/kg, 504 h): 19% | % reduction of schistosomule growth at day 21 after per os application of 200 mg/kg, FWR (%) [1, 6]: 19% | Survival (days) 10 mg/kg po [4]: 7.3 days | Activity (%) 10 mg/kg po [4]: 71% | Survival (days) 10 mg/kg SSV po [4]: 7.3 days | Activity (%) 10 mg/kg SSV po [4]: 71% | Survival (days) 10 mg/kg sc [4]: 11.0 days | Activity (%) 10 mg/kg sc [4]: 99.63% | IC50 [5, 9]: 3.8 ng/mL (≈ 9.83 nM)

C1C2CC3CC1CC(C2)C31OOC2(CCC3(CC2)OOC2(O3)C3CC4CC(C3)CC2C4)O1 (stereo not drawn) [OZ169, Adamantane-2-spiro-3′-1′,2′,4′,9′,10′,12′-hexaoxadispiro[4.2.4.2]tetradecane-11′-spiro-2″-adamantane]
IC50 [3, 10]: > 10 ng/mL | % reduction of schistosomule growth at day 21 after per os application of 200 mg/kg, FWR (%) [1, 6]: 0% | % reduction of schistosomule growth at day 21 after per os application of 200 mg/kg, TWR (%) [1, 7]: 0% | Survival (days) 10 mg/kg po [4]: 7.7 days | Activity (%) 10 mg/kg po [4]: 98% | Survival (days) 10 mg/kg SSV po [4]: 6.7 days | Activity (%) 10 mg/kg SSV po [4]: 22% | Survival (days) 10 mg/kg sc [4]: 9.0 days | Activity (%) 10 mg/kg sc [4]: 99.76% | IC50 [5, 11]: 15 ng/mL (≈ 33.7 nM)

NC[C@H]1CC[C@]2(CC1)OOC1(O2)C2CC3CC(C2)CC1C3 (stereo partly drawn) [OZ163]
IC50 [3, 10]: 0.2 ng/mL (≈ 0.682 nM) | % reduction of schistosomule growth at day 21 after per os application of 200 mg/kg, FWR (%) [1, 6]: 80% | Survival (days) 10 mg/kg po ([4]; hydrochloride, 10 mg/kg): 8.0 days | Activity (%) 10 mg/kg po ([4]; hydrochloride, 10 mg/kg): 99.90% | Survival (days) 10 mg/kg SSV po ([4]; hydrochloride, 10 mg/kg): 9.0 days | Activity (%) 10 mg/kg SSV po ([4]; hydrochloride, 10 mg/kg): 99.94% | Survival (days) 10 mg/kg sc ([4]; hydrochloride, 10 mg/kg): 9.7 days | Activity (%) 10 mg/kg sc ([4]; hydrochloride, 10 mg/kg): 100%

OC[C@H]1CC[C@]2(CC1)OOC1(O2)C2CC3CC(C2)CC1C3 (stereo partly drawn) [OZ119]
IC50 [3, 8]: 0.2 ng/mL (≈ 0.679 nM) | % reduction of schistosomule growth at day 21 after per os application of 200 mg/kg, TWR (%) ([1]; po, 200 mg/kg, 504 h): 88% | % reduction of schistosomule growth at day 21 after per os application of 200 mg/kg, FWR (%) [1, 6]: 87% | Survival (days) 10 mg/kg po [4]: 7.7 days | Activity (%) 10 mg/kg po [4]: 99.29% | Survival (days) 10 mg/kg SSV po [4]: 8.0 days | Activity (%) 10 mg/kg SSV po [4]: 99.15% | Survival (days) 10 mg/kg sc [4]: 8.3 days | Activity (%) 10 mg/kg sc [4]: 99.66% | IC50 [5, 9]: 0.83 ng/mL (≈ 2.82 nM)

CN1CCN(C(=O)N2CCC3(CC2)OOC2(O3)C3CC4CC(C3)CC2C4)CC1 (stereo not drawn) [OZ157, Adamantane-2-spiro-3′-8′-[(4′-methyl-1′-piperazinyl)carbonyl]-1′,2′,4′-trioxa-8′-azaspiro[4.5]decane]
IC50 [3, 10]: 0.22 ng/mL (≈ 0.562 nM) | % reduction of schistosomule growth at day 21 after per os application of 200 mg/kg, FWR (%) [1, 6]: 68% | % reduction of schistosomule growth at day 21 after per os application of 200 mg/kg, TWR (%) [1, 7]: 65% | Survival (days) 10 mg/kg po [4]: 7.3 days | Activity (%) 10 mg/kg po [4]: 90% | Survival (days) 10 mg/kg SSV po [4]: 8.3 days | Activity (%) 10 mg/kg SSV po [4]: 80% | Survival (days) 10 mg/kg sc [4]: 8.3 days | Activity (%) 10 mg/kg sc [4]: 97% | IC50 [5, 11]: 0.2 ng/mL (≈ 0.511 nM)

c1cn(C[C@H]2CC[C@]3(CC2)OOC2(O3)C3CC4CC(C3)CC2C4)cn1 (stereo partly drawn) [OZ145]
IC50 [3, 8]: 0.76 ng/mL (≈ 2.21 nM) | % reduction of schistosomule growth at day 21 after per os application of 200 mg/kg, TWR (%) ([1]; po, 200 mg/kg, 504 h): 80% | % reduction of schistosomule growth at day 21 after per os application of 200 mg/kg, FWR (%) [1, 6]: 83% | Survival (days) 10 mg/kg po ([4]; 10 mg/kg): 8.3 days | Activity (%) 10 mg/kg po ([4]; 10 mg/kg): 99.82% | Survival (days) 10 mg/kg SSV po ([4]; 10 mg/kg): 10.7 days | Activity (%) 10 mg/kg SSV po ([4]; 10 mg/kg): 99.21% | Survival (days) 10 mg/kg sc ([4]; 10 mg/kg): 10.7 days | Activity (%) 10 mg/kg sc ([4]; 10 mg/kg): 99.87% | IC50 [5, 9]: 0.5 ng/mL (≈ 1.45 nM)

C1CCN(C2CCC3(CC2)OOC2(O3)C3CC4CC(C3)CC2C4)CC1 (stereo not drawn) [OZ159]
IC50 [3, 10]: 0.94 ng/mL (≈ 2.71 nM) | % reduction of schistosomule growth at day 21 after per os application of 200 mg/kg, FWR (%) [1, 6]: 19% | % reduction of schistosomule growth at day 21 after per os application of 200 mg/kg, TWR (%) [1, 7]: 19% | Survival (days) 10 mg/kg po [4]: 6.7 days | Activity (%) 10 mg/kg po [4]: 34% | Survival (days) 10 mg/kg SSV po [4]: 6.7 days | Activity (%) 10 mg/kg SSV po [4]: 31% | Survival (days) 10 mg/kg sc [4]: 9.0 days | Activity (%) 10 mg/kg sc [4]: 98% | IC50 [5, 11]: 0.7 ng/mL (≈ 2.01 nM)
